Results taken from article PMC9775322, “An Integrated Analysis of Mechanistic Insights into Biomolecular Interactions and Molecular Dynamics of Bio-Inspired Cu(II) and Zn(II) Complexes towards DNA/BSA/SARS-CoV-2 3CL^pro by Molecular Docking-Based Virtual Screening and FRET Detection” (Biomolecules, 2022).

Key:
CT-DNA [1] = assay: DNA binding by UV–visible absorption titration; set-up: species or system calf
Protocol: The DNA-binding experiment was performed by a UV–visible spectrophotometer by raising the DNA concentration from zero to 50 μM to the given concentration of all samples (50 μM) in Tris-HCl buffer with a pH of 7.4 at 25 °C [21, 22].
2.2.2. Evaluation of DNA-binding characteristics
By increasing the concentration of DNA (0 –50 μM), electronic absorption titrations were performed at the fixed concentration (50 μM) of all test compounds in aqueous media at room temperature. The Tris-HCl buffer (5mM Tris-HCl /50 mM NaCl, pH = 7.2) solution was guaranteed to be pure and contain sufficient amounts of DNA. Using the molar extinction coefficient (6600 M −1 cm−1) at 260 nm, it was also possible to measure the DNA concentration per nucleotide and polynucleotide, denoting that the DNA was sufficiently free of protein by the ratio of absorbance at 260 and 280 nm of roughly 1.8 –1.9 [21, 22]. When raising the concentration of DNA in compound solution, up to the point of completely binding, the decrease in absorbance intensity was carefully observed. […]
ɛa is represented as the apparent absorption coefficient value for the MLCT band at a specific concentration of deoxyribonucleic acid and evaluated from Abs/[complex]. ɛ f and ɛb are the absorption coefficients for the chemical substance alone and completely interacted with deoxyribonucleic acid, respectively. ∆Amax = (Amax–A0); ∆A=(Ax–A0), where A0, Ax and Amax are denoted as the optical density of chemical substances alone, the middle form, and the completely interacted form with deoxyribonucleic acid, respectively.

CT-DNA [2] = assay: DNA binding affinity by viscometric (hydrodynamic) titration; set-up: species or system calf; settings: for Relative Specific Viscosity (η/η0)^1/3: DNA 100 µM
Protocol: The hydrodynamic titrations were carried out for all substances along with ethidium bromide (control) at 20, 40, 60, 80, 100 µM concentrations. In the Ostwald viscometer, these substances were also separately treated with the deoxyribonucleic acid solution (100 µM).
2.2.4. Viscometry-based titration for investigation of DNA binding
The Viscometry-based titration measurements were further supportive and delivered data about the binding modes between test compound and DNA base pairs. Nevertheless, it does not deliver definite confirmation for the exact mode of interactions. The experiment performed for all test compounds and ethidium bromide (control) at various concentrations 20, 40, 60, 80, 100 µM and each compound mixed with the CT-DNA solution (100 µM) in the Ostwald viscometer. With an accuracy of 0.01 seconds, a digital stopwatch was used to measure the average flow time. Due to the enhancement of the DNA's overall contour length during the separation of base pairs at intercalation sites, the classical intercalative mode […]
Generally, the compounds may result in less positive/negative or no viscosity change if they bind with DNA base pairs via […]
major or minor grooves [ 26]. […]
compounds via intercalation.

BSA = biological target: T1, BSA (Bos taurus, UniProt P02769); assay: Förster's theory-based FRET computation, donor (BSA)–acceptor (compound); format: binding, bovine; set-up: kET (rate of exchange resonance energy transfer): unit not given here
T1 construct: purchased Sigma Aldrich
Description: As per Förster’s theory, the critical distance of the donor-acceptor system can be determined with the supporting of the FRET approach to assess the binding affinity between BSA-substance systems. […]
excitation and emission directions, respectively. Also, the alteration in absorbance (OD) at the excitation and fluorescence wavelengths, respectively, is sometimes referred to as A ex and […]
F = 1+KSV [Q] = 1+ Kq τ0 (S13)
Where [Q] is represented as the sample concentration (quencher), the emission intensities F 0 and F are those in the […] of the quencher, respectively.
F ) = log Kass + nlog [Q] (S14)
KEB[EB] = Kapp[compound] (S15)
∆F = (F 0–F), Equation (16) was utilized to examine the Lineweaver –Burk binding constant (KLB) from the linear regression plot of 1/(F0–F) vs 1/[Q]. […]
γ =(F0–F)/F0, CF is denoted as the concentration of sample alone, the linear regression plot of (γ/CF) vs γ was employed to support equation (17), which was used to determine the values of KSA and n, respectively.
2.2.6. FRET calculation by Förster’s theory
Calculating FRET (Fluorescence Resonance Energy Transfer) is a crucial approach in determining the critical distance (r) between donor (BSA) and acceptor (test compound) molecules, in which the binding affinity between the BSA-complex systems could be evalued according to Förster’s theory. The overlap of the emission spectrum of the donor (BSA) and the absorption spectrum of the acceptor (compound) describes that the acceptor (compound) group may get excited as a result of the excited donor's (BSA) energy being lost to the ground […]
The relative orientation factor of the dipoles (K 2) is associated with the geometry of the BSA and complex of the dipoles, the value for random orientation (K 2 = 2/3) like in a fluid […]
F(λ) is represented as the corrected or the normalized emission intensity(OD) of the bovine serum albumin in the range of λ–(λ+∆λ), ε(λ) is denoted as the molar extinction coefficient of […]
The radiative, non-radiative decay and quenching rate constants are denoted as k r, knr and kq, respectively, and the concentration of complex (quenching species) is described as [Q].

[3] = DPPH radical scavenging assay; format: biochemical; settings: 517 nm
[4] = Superoxide scavenging assay; format: biochemical; settings: 590 nm
Aspergillus niger = assay: Agar disc diffusion antifungal test; settings: H
Shigella flexneri = assay: Agar disc diffusion antibacterial test; settings: E, (-) Shigella flexneri
[5] = compound 50 μM, DNA 0–50 μM, Tris-HCl buffer pH 7.4, 25 °C
[6] = intrinsic DNA binding constant, UV–Vis titration
[7] = 20 µL of 100 µM on 6 mm disc, Control (DMSO) = 6 mm

T1 sequence (P02769 25-607): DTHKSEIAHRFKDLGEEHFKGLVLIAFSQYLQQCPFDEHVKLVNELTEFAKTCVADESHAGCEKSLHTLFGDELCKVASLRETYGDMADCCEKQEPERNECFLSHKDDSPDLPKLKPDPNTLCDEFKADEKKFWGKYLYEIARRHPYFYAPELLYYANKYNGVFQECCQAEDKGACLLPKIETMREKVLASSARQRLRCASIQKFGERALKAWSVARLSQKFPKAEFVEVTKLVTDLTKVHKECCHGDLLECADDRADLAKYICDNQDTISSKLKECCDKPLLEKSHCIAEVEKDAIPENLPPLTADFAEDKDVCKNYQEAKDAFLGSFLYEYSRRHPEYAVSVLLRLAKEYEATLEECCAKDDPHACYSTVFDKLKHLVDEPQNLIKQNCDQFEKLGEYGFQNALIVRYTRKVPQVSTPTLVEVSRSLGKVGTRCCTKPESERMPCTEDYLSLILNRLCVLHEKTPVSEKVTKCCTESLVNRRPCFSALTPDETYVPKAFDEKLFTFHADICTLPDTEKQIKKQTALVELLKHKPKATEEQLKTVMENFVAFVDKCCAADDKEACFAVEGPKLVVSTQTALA

[O-]c1ccccc1N=Cc1ccc(N2CCOCC2)cc1.[O-]c1ccccc1N=Cc1ccc(N2CCOCC2)cc1.[Zn+2].c1cnc2c(c1)ccc1cccnc12 [(2b), [Zn^II(L)2(phen)]]
ΔGb° values, range over all methods (WS, BH, SK) (CT-DNA [1]; DNA binding, UV–Vis titration): −24.47 to −24.65 kJmol^−1 | % H (hypochromism) (CT-DNA [1]; [5]): 55.75% | Δλ nm (red shift on binding to CT-DNA) (CT-DNA [1]; [5]): 5 nm | Kb, BH–I (Benesi–Hildebrand method I) (CT-DNA [1]; [6]): 20131 M⁻¹ | Kb, BH–II (Benesi–Hildebrand method II) (CT-DNA [1]; [6]): 20035 M⁻¹ | Kb, SK–I (Sakthi–Krause method I) (CT-DNA [1]; [6]): 19471 M⁻¹ | Kb, SK–II (Sakthi–Krause method II) (CT-DNA [1]; [6]): 20897 M⁻¹ | Kb, WS–I (Wolfe-Shimmer method I) (CT-DNA [1]; [6]): 19930 M⁻¹ | Kb, WS–II (Wolfe-Shimmer method II) (CT-DNA [1]; [6]): 20811 M⁻¹ | ΔGb°, BH–I (CT-DNA [1]; −RT ln Kb, T = 298 K): −24.55 kJmol^−1 | ΔGb°, BH–II (CT-DNA [1]; −RT ln Kb, T = 298 K): −24.54 kJmol^−1 | ΔGb°, SK–I (CT-DNA [1]; −RT ln Kb, T = 298 K): −24.47 kJmol^−1 | ΔGb°, SK–II (CT-DNA [1]; −RT ln Kb, T = 298 K): −24.65 kJmol^−1 | ΔGb°, WS–I (CT-DNA [1]; −RT ln Kb, T = 298 K): −24.53 kJmol^−1 | ΔGb°, WS–II (CT-DNA [1]; −RT ln Kb, T = 298 K): −24.64 kJmol^−1 | Relative Specific Viscosity (η/η0)^1/3 (CT-DNA [2]; R = [Complex]/[DNA] = 0.2): 0.80 | Relative Specific Viscosity (η/η0)^1/3 (CT-DNA [2]; R = [Complex]/[DNA] = 0.4): 0.91 | Relative Specific Viscosity (η/η0)^1/3 (CT-DNA [2]; R = [Complex]/[DNA] = 0.6): 1.16 | Relative Specific Viscosity (η/η0)^1/3 (CT-DNA [2]; R = [Complex]/[DNA] = 0.8): 1.21 | Relative Specific Viscosity (η/η0)^1/3 (CT-DNA [2]; R = [Complex]/[DNA] = 1.0): 1.53 | Slope of (η/η0)^1/3 vs [Compound]/[DNA] (CT-DNA [2]; linear plot, R 0.2–1.0): 0.840 | J (normalized spectral overlap integral) (BSA; BSA emission vs compound absorption): 0.9460 × 10^−14 LM^−1cm^3 | kET (rate of exchange resonance energy transfer) (BSA; BSA–compound): 4.7730 | r (donor-acceptor separation) (BSA; BSA–compound): 2.8257 nm | E (efficiency of energy transfer) (BSA; E=1−F/F0): 0.3231 | B (average brightness of the complex-BSA system) (BSA; free BSA = 6573.60 M^−1 cm^−1): 5650.81 M⁻¹ cm⁻¹ | R0 (critical distance, 50% energy transfer) (BSA; n = 1.36, Φ = 0.15, K^2 = 2/3): 2.4980 nm | % Inhibition, DPPH ([3]; 40 µM): 12.82% | % Inhibition, DPPH ([3]; 80 µM): 24.88% | % Inhibition, DPPH ([3]; 120 µM): 30.89% | % Inhibition, DPPH ([3]; 160 µM): 40.27% | % Inhibition, DPPH ([3]; 200 µM): 50.12% | % Inhibition, DPPH ([3]; 240 µM): 60.66% | IC50 [3]: 200 µM | % Inhibition, superoxide ([4]; 40 µM): 06.70% | % Inhibition, superoxide ([4]; 80 µM): 12.58% | % Inhibition, superoxide ([4]; 120 µM): 24.23% | % Inhibition, superoxide ([4]; 160 µM): 40.35% | % Inhibition, superoxide ([4]; 200 µM): 52.23% | % Inhibition, superoxide ([4]; 240 µM): 60.02% | diameter of clear zone inhibition (Aspergillus niger; [7]): 11 mm | Inhibition % (Aspergillus niger; (T–C)/T × 100): 45% | diameter of clear zone inhibition (Shigella flexneri; [7]): 14 mm | Inhibition % (Shigella flexneri; (T–C)/T × 100): 57%
